Experimental data published in US6706741B2, “Acetylcholinesterase inhibitors containing 1-benzyl-pyridinium salts” (priority 2000, dated 2004).

Target: T1, acetylcholinesterase (Rattus norvegicus, UniProt P37136)
T1 construct: Using a rat brain homogenate as a source of acetylcholinesterase; from tissue; host or cells: rat brain homogenate
Experiment: biochemical
Settings: rat brain homogenate as source of acetylcholinesterase; acetylthiocholine substrate, DTNB, absorbance at 412 nm
Method: Using a rat brain homogenate as a source of acetylcholinesterase, the esterase activity was determined in accordance with the method of Ellman et al^1).
^1); Ellman. G. L., Courtney, K. D., Andres, V. and Featherstone, R. M., (1961), Biochem. Pharmacol., 7, 88-95.

T1 sequence (P37136 32-614): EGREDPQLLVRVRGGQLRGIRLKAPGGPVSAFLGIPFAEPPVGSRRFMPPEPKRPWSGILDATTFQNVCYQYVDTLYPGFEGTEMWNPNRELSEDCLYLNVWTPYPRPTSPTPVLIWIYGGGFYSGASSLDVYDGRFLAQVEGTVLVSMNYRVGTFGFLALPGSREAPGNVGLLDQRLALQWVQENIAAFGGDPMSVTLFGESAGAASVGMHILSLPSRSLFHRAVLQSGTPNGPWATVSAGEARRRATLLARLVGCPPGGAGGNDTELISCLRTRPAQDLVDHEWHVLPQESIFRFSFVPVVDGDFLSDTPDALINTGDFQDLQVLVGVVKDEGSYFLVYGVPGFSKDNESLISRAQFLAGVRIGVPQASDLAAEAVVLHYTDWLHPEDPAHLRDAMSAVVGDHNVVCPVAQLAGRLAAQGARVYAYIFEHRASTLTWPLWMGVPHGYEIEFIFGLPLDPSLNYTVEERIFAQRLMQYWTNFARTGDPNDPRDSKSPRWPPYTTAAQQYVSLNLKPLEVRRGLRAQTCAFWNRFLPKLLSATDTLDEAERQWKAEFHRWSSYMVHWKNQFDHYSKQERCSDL

## COc1cc2c(cc1OC)C(=O)C(Cc1cc[n+](Cc3ccccc3)cc1)C2 (stereo not shown) [Example 1, 1-Benzyl-4-[(5.6-dimethoxy-1-indanone)-2-yl]methylpyridinium bromide]
  IC50: 3.8 nM
